Experimental data taken from ChEMBL document CHEMBL1142239, “Optimization of novel acyl pyrrolidine inhibitors of hepatitis C virus RNA-dependent RNA polymerase leading to a development candidate” (J Med Chem, 2007).
The source made the active and inactive calls. No cut-off for these calls is given here.

Key:
[1] = Cytotoxicity against Vero cells after 4 days; format: cell-based; details: chlorocebus sabaeus, read-out: CCID50
Hepatitis C virus [2] = assay: Antiviral activity against HCV replicon containing HCV 1b genome transfected in Huh7 cells after 72 hrs by ELISA; format: functional, organism-based, Hepacivirus hominis; details: genotype 1b, Huh-7, 72 h
Hepatitis C virus [3] = assay: Inhibition of HCV 1b RB01 NS5B by filtermat assay; set-up: species or system Hepatitis C virus subtype 1b
[4] = Bioavailability in Sprague-Dawley rat at 2 mg/kg, po and 1 mg/kg, iv; format: ADME, organism-based; details: in vivo
[5] = Plasma clearance in Sprague-Dawley rat at 1 mg/kg, iv; format: ADME, organism-based; set-up: dose 1 mg/kg, route intravenous
Hepatitis C virus [6] = assay: Inhibition of HCV 1b RB01 NS5B by SPA; set-up: species or system Hepatitis C virus subtype 1b
[7] = Lipophilicity, log D of the compound; format: physicochemical; details: octanol/water
Hepatitis C virus [8] = assay: Antiviral activity against HCV replicon containing HCV 1b genome transfected in Huh7 cells in presence of interferon alpha 2a; format: functional, organism-based; details: Hepacivirus hominis; genotype 1b; Huh-7

Row | Structure (SMILES) | EC50 (Hepatitis C virus [2]) | IC50 (Hepatitis C virus [3]) | bioavailability [4] | clearance [5] | IC50 (Hepatitis C virus [6]) | logD [7] | CC50 at 96 h [1] | Activity (Hepatitis C virus [8])
1 | CC(C)C[C@@]1(C(=O)O)C[C@H](C(=O)O)[C@H](c2cccs2)N1C(=O)c1ccc(C(C)(C)C)cc1 (racemic) | > 20000 nM | 1100 nM | – | – | – | – | > 500 µM | –
2 | CC(C)C[C@@]1(C(=O)O)C[C@H](C(=O)O)[C@H](c2cccs2)N1C(=O)c1ccc(C(F)(F)F)cc1 (racemic) | > 20000 nM | 20000 nM | – | – | – | – | > 500 µM | –
3 | CCOC[C@H]1C[C@@](CC(C)C)(C(=O)O)N(C(=O)c2ccc(C(C)(C)C)c(OC)c2)[C@H]1c1nccs1 | 470 nM | – | 120% | 5 mL/min/kg | 430 nM | 2.7 | 142 µM | –
4 | CC(C)C[C@@]1(C(=O)O)C[C@H](C(N)=O)[C@H](c2nccs2)N1C(=O)c1ccc(C(C)(C)C)c(Cl)c1 | 1200 nM | 20 nM | 5% | 29 mL/min/kg | – | – | > 500 µM | –
5 | CC(C)C[C@@]1(C(=O)O)C[C@H](C(N)=O)[C@H](c2nccs2)N1C(=O)c1ccc(C(C)(C)C)c(Br)c1 | 570 nM | 14 nM | 2% | 24 mL/min/kg | – | – | > 500 µM | –
6 | CC(C)C[C@@]1(C(=O)O)C[C@H](C(N)=O)[C@H](c2nccs2)N1C(=O)c1ccc(C(C)(C)C)cc1 | > 20000 nM | 970 nM | 2% | 21 mL/min/kg | – | – | 430 µM | –
7 | COc1cc(C(=O)N2[C@@H](c3nccs3)[C@@H](C(N)=O)C[C@@]2(CC(C)C)C(=O)O)ccc1C(C)(C)C | 610 nM | 5 nM | 0.6% | 37 mL/min/kg | – | – | > 500 µM | –
8 | CC(C)C[C@@]1(C(=O)O)C[C@H](C(=O)O)[C@H](c2nccs2)N1C(=O)c1ccc(C(C)(C)C)cc1 (racemic) | > 20000 nM | 3800 nM | – | – | – | – | > 500 µM | –

Now from value to compound, other results behind:

Row | EC50 (Hepatitis C virus [2]) | IC50 (Hepatitis C virus [3]) | bioavailability [4] | clearance [5] | IC50 (Hepatitis C virus [6]) | logD [7] | Structure (SMILES) | CC50 at 96 h [1] | Activity (Hepatitis C virus [8])
9 | 210 nM | – | 12% | 36 mL/min/kg | 730 nM | – | COc1cc(C(=O)N2[C@@H](c3nccs3)[C@@H](CO)C[C@@]2(CC(C)C)C(=O)O)ccc1C(C)(C)C (racemic) | 358 µM | –
10 | 1300 nM | – | 11% | 39 mL/min/kg | 1000 nM | – | COc1cc(C(=O)N2[C@@H](c3nccs3)[C@H](CO)C[C@@]2(CC(C)C)C(=O)O)ccc1C(C)(C)C (racemic) | 482 µM | –
11 | 390 nM | – | 59% | 5 mL/min/kg | 440 nM | 2.2 | COC[C@H]1C[C@@](CC(C)C)(C(=O)O)N(C(=O)c2ccc(C(C)(C)C)c(OC)c2)[C@H]1c1nccs1 | 240 µM | Active
12 | 5700 nM | – | 44% | 12 mL/min/kg | 2300 nM | – | COC[C@@H]1C[C@@](CC(C)C)(C(=O)O)N(C(=O)c2ccc(C(C)(C)C)c(OC)c2)[C@H]1c1nccs1 | 265 µM | –
13 | 12800 nM | – | – | – | 3200 nM | – | CCOC[C@@H]1C[C@@](CC(C)C)(C(=O)O)N(C(=O)c2ccc(C(C)(C)C)c(OC)c2)[C@H]1c1nccs1 (racemic) | 214 µM | –
